Key:
PC12 cells [1] = assay: Morphological comparison of PC12 cells treated with Aβ and caspase-3 inhibitors; details: inhibitor alone; 28 μM chen-1, 200 nM Ac-Asp-Glu-Val-Asp-aldehyde; phase contrast microscope, 72 hours
Experimental: Culture of cells: PC 12 cells were obtained from XiCan Tang of Institute of Material Medica, CAS. Media were DMEM(HG) containing 10% calf serum. PC12 were incubated in an incubator with constant temperature with 5% carbon dioxide at 37° C. The cells were inoculated in Petri dishes and 96-well plates in the amount […], the compounds of the present invention were added into after 12 hours, and […] of apoptosis inducer, Aβ25-35, was added after 24 hours.

PC12 cells [2] = assay: Flow cytometry detection of apoptotic PC12 cells (propidium iodide, sub-G1); assay type: cell-based
Experimental: Media were DMEM(HG) containing 10% calf serum.
2×10^6 cells were collected at different time respectively after PC12 were treated in the same method. Cell precipitation was washed twice with PBR, followed by adding ice ethanol, and the resulting solution was blown to disperse the cells into single, fixed for 2 hours at 4° C. Before staining, the solution was centrifuged at 300 rpm for 10 minutes, and the supernatant was discarded, then the precipitation was washed twice with PBR to remove ethanol substantially. Into the cell precipitation was added a staining solution (containing 0.1% TritonX-100, 0.1 mM EDTApH7.4, 0.01 mg/ml RNase A, 50 μg/ml propidium iodide). Cell fluorescence was detected with flow cytometry after the cells in staining solution for 30 minutes at 4° C. away from light, and percentage and cycle of apoptotic cells were calculated by analyzing DNA content. The results were obtained by flow cytometry laboratory of Institute of Biochemistry and Cell Biology, CAS.
As illustrated from the above results, it may be seen that caspase-3 inhibitors could protect PC12 markedly and resist apoptosis of PC12 mediated by neurotoxicity of Aβ of Aβ25-35, and they have no toxicity in low concentration themselves.

[3] = Aβ25-35 and inhibitor (2 μM Ac-DEVD-CHO, 28 μM Chen-1) in the medium at the same time
[4] = only caspase-3 inhibitor added, no Aβ25-35, after 72 hours

SMILES | toxic effect on PC12 cells (morphology) (PC12 cells [1]) | percentage of apoptotic cells (PC12 cells [2]; [3]) [%] | percentage of apoptotic cells (PC12 cells [2]; [4]) [%]
O=C1NC(=O)c2ccccc2C1=O [Chen-1] | no toxic effect | 4.09 | 2.15
CC(=O)N[C@@H](CC(=O)O)C(=O)N[C@@H](CCC(=O)O)C(=O)N[C@H](C(=O)N[C@H](C=O)CC(=O)O)C(C)C [Ac-DEVD-CHO, Ac-Asp-Glu-Val-Asp-aldehyde] | no toxic effect | 4.01 | 2.27

Reference: patent publication US7683073B2, “Isoquinoline-1,3,4-trione compounds, the synthetic method and the use thereof” (Shanghai Institute of Materia Medica, Chinese Academy of …, priority 2005, dated 2010)
